Key:
[1] = wn = mass fraction of the nth substance listed; conditions: 298.15 K, 101 kPa, Liquid, Alternating current cell with electrodes
[2] = 298.15 K, Liquid; for electrical conductivity: 101 kPa, Alternating current cell with electrodes; for viscosity / mass density: 101.33 kPa; for viscosity: Cone and plate viscometry; for mass density: Pycnometric method

C1CC[NH2+]C1.O=C[O-] [pyrrolidinium formate] + O
[1]
Conditions	electrical conductivity [S/m]
w2 = 0	3.29
w2 = 0.0251	4.01
w2 = 0.0501	4.44
w2 = 0.0907	4.95
w2 = 0.1666	5.99
w2 = 0.2304	6.71
w2 = 0.2853	7.2
w2 = 0.3329	7.54
w2 = 0.3745	7.73
w2 = 0.4113	7.83
w2 = 0.4439	7.83
w2 = 0.4995	7.77
w2 = 0.5647	7.33
w2 = 0.5828	7.04
w2 = 0.6662	6.36
w2 = 0.7055	5.92
w2 = 0.7496	5.36
w2 = 0.7917	4.48
w2 = 0.8607	3.18
w2 = 0.9018	2.13
w2 = 0.9106	1.88

O [water] + C1CC[NH2+]C1.O=[N+]([O-])[O-]
Conditions	electrical conductivity [S/m]
[1], w1 = 1	0.0001

O [water] + C1CC[NH2+]C1.CCCCCCCC(=O)[O-]
Conditions	electrical conductivity [S/m]
[1], w1 = 1	0.0001

O [water] + CC[NH+](C(C)C)C(C)C.O=C[O-]
Conditions	electrical conductivity [S/m]
[1], w1 = 1	0.0001

O [water] + C1CC[NH2+]C1.CC(=O)[O-]
Conditions	electrical conductivity [S/m]
[1], w1 = 1	0.0001

C1CC[NH2+]C1.CC(=O)[O-] [pyrrolidinium acetate]
[2]
Conditions	electrical conductivity [S/m]	mass density [kg/m3]	viscosity [mPa·s]
–	0.594	1054.3	30.2

O [water] + C1CC[NH2+]C1.CCCCCCCCC(=O)[O-]
Conditions	electrical conductivity [S/m]
[1], w1 = 1	0.0001

O [water]
Conditions	electrical conductivity [S/m]
[2]	0.0001

O=C[O-].c1ccc2[nH+]cccc2c1 [quinolinium formate]
[2]
Conditions	electrical conductivity [S/m]	mass density [kg/m3]	viscosity [mPa·s]
–	0.415	1153	8.2

C1CC[NH2+]C1.CCCCCCCC(=O)[O-] [pyrrolidinium octanoate] + O
[1]
Conditions	electrical conductivity [S/m]
w2 = 0	0.08
w2 = 0.0475	0.223
w2 = 0.0908	0.347
w2 = 0.1664	0.635
w2 = 0.1997	0.795
w2 = 0.2589	1.06
w2 = 0.31	1.31
w2 = 0.3544	1.58
w2 = 0.3935	1.7
w2 = 0.459	1.93
w2 = 0.4996	2.06
w2 = 0.5551	2.18
w2 = 0.5996	2.23
w2 = 0.6292	2.23
w2 = 0.6548	2.22
w2 = 0.7011	2.17
w2 = 0.7558	2.03
w2 = 0.7724	1.97
w2 = 0.8037	1.83
w2 = 0.8212	1.68

O [water] + O=C[O-].c1ccc2[nH+]cccc2c1
Conditions	electrical conductivity [S/m]
[1], w1 = 1	0.0001

C1CC[NH2+]C1.O=[N+]([O-])[O-] [pyrrolidinium nitrate]
[2]
Conditions	electrical conductivity [S/m]	viscosity [mPa·s]
–	5.01	5.2

Cc1cccc[n+]1C.O=C[O-] [1,2-dimethylpyridinium formate] + O
[1]
Conditions	electrical conductivity [S/m]
w2 = 0	1.04
w2 = 0.051	1.37
w2 = 0.0908	1.64
w2 = 0.1665	2.21
w2 = 0.2854	3.27
w2 = 0.333	3.77
w2 = 0.4114	4.52
w2 = 0.4441	4.74
w2 = 0.4997	5.26
w2 = 0.5451	5.56
w2 = 0.6151	5.98
w2 = 0.6549	6.16
w2 = 0.7056	6.23
w2 = 0.7617	6
w2 = 0.7998	5.68
w2 = 0.857	4.85
w2 = 0.8748	4.51
w2 = 0.8888	4.21
w2 = 0.8999	3.93
w2 = 0.909	3.7

O [water] + CCCC(C)[NH3+].O=C[O-]
Conditions	electrical conductivity [S/m]
[1], w1 = 1	0.0001

CCCC(C)[NH3+].O=C[O-] (centres undefined) [2-pentanaminium formate] + O
[1]
Conditions	electrical conductivity [S/m]
w2 = 0	0.036
w2 = 0.056	0.121
w2 = 0.1005	0.197
w2 = 0.1623	0.342
w2 = 0.2793	0.847
w2 = 0.3676	1.38
w2 = 0.4366	1.92
w2 = 0.5375	2.8
w2 = 0.6078	3.3
w2 = 0.6595	3.51
w2 = 0.6992	3.6
w2 = 0.7561	3.57
w2 = 0.7999	3.4
w2 = 0.88	2.93
w2 = 0.9	2.73
w2 = 0.91	2.38
w2 = 0.925	2.13
w2 = 0.933	1.94
w2 = 0.943	1.71
w2 = 0.954	1.47
w2 = 0.967	1.13
w2 = 0.982	0.677

C1CC[NH2+]C1.CC(=O)[O-] [pyrrolidinium acetate] + O
[1]
Conditions	electrical conductivity [S/m]
w2 = 0	0.594
w2 = 0.0474	0.685
w2 = 0.0906	0.716
w2 = 0.1661	1.04
w2 = 0.1994	1.11
w2 = 0.2585	1.53
w2 = 0.3095	1.93
w2 = 0.3539	2.32
w2 = 0.393	2.64
w2 = 0.4585	3.24
w2 = 0.499	3.52
w2 = 0.5546	3.92
w2 = 0.599	4.09
w2 = 0.6543	4.3
w2 = 0.7007	4.37
w2 = 0.7554	4.43
w2 = 0.8033	4.23
w2 = 0.8328	4.02

O [water] + C1CC[NH2+]C1.CCCCCC(=O)[O-]
Conditions	electrical conductivity [S/m]
[1], w1 = 1	0.0001

CC[NH+](C(C)C)C(C)C.O=C[O-] [ethyldiisopropylammonium formate] + O
[1]
Conditions	electrical conductivity [S/m]
w2 = 0	0.586
w2 = 0.0625	0.88
w2 = 0.1176	1.13
w2 = 0.1667	1.39
w2 = 0.2105	1.67
w2 = 0.25	1.96
w2 = 0.3182	2.4
w2 = 0.3478	2.63
w2 = 0.4231	3.11
w2 = 0.4643	3.36
w2 = 0.5	3.51
w2 = 0.5588	3.86
w2 = 0.5833	3.93
w2 = 0.6053	3.96
w2 = 0.625	3.97
w2 = 0.6429	3.97
w2 = 0.6591	3.96
w2 = 0.7	3.97
w2 = 0.7115	3.97
w2 = 0.7222	3.96

O [water] + Cc1cccc[n+]1C.O=C[O-]
Conditions	electrical conductivity [S/m]
[1], w1 = 1	0.0001

CCCC(C)[NH3+].O=C[O-] (centres undefined) [2-pentanaminium formate]
[2]
Conditions	electrical conductivity [S/m]	mass density [kg/m3]
–	0.036	1163

C1CC[NH2+]C1.CCCCCCCC(=O)[O-] [pyrrolidinium octanoate]
[2]
Conditions	electrical conductivity [S/m]	mass density [kg/m3]	viscosity [mPa·s]
–	0.08	949.5	36.5
